# Read-outs that look alike come from different tables or passages of the source.
# Tests used:
# DLD-1 BRCA2−/− cells = test: Homologous recombination synthetic lethal inhibition of proliferation, DLD-1 BRCA2-/- (Cell Titre Glo 3D); format: cell-based; conditions: Homo sapiens, DLD-1 BRCA2-/-, read-out: POLQ PD Prolif Lumin (converted)
# Procedure, shortened: (§1)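 Luminescent Cell Titre Glo 3D readout, taken on day 12 for homologous-recombination-deficient DLD-1 BRCA2−/− and day 7 for the wild-type control, after compound refresh on day 6. Compounds spanned 10 μM to 0.51 nM in three-fold steps; IC50 defined as 50% reduction of average maximum signal.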
# DLD-1 cells = test: Inhibition of proliferation, DLD-1 BRCA2 wt control (Cell Titre Glo 3D); format: cell-based; conditions: Homo sapiens, DLD-1 BRCA2 wt control, read-out: POLQ PD Prolif Lumin (converted)
# Procedure, shortened: as §1
# [1] = DLD-1, first proliferation column (c5)
# [2] = DLD-1, second proliferation column (c6)
# [3] = DLD-1, first proliferation column
# [4] = DLD-1, second proliferation column
Compound,IC50 (DLD-1 BRCA2−/− cells; [1]) [nM],IC50 (DLD-1 cells; [2]) [nM],IC50 (DLD-1 BRCA2−/− cells; [3]) [nM],IC50 (DLD-1 cells; [4]) [nM]
"Cc1ccnc(Cn2c(-c3ccc(OCCCN4CC(O)C4)cc3Cl)nc3c(OC4(C)CC4)ncnc32)c1 [Example T513, 1-(3-(3-chloro-4-(6-(1-methylcyclopropoxy)-9-((4-methylpyridin-2-yl)methyl)-9H-purin-8-yl)phenoxy)propyl)azetidin-3-ol]",316,> 10000,–,–
"Cc1ccnc(Cn2c(-c3cccc(OCCCN4CC(O)C4)c3Cl)nc3c(OC4(C)CC4)ncnc32)c1 [Example T514, 1-(3-(2-chloro-3-(6-(1-methylcyclopropoxy)-9-((4-methylpyridin-2-yl)methyl)-9H-purin-8-yl)phenoxy)propyl)azetidin-3-ol]",398,> 10000,–,–
"C[C@H]1CNCCN1CCOc1ccc(-c2nc3c(OC4(C)CC4)ncnc3n2Cc2cc(Cl)ccn2)c(Cl)c1 [Example T523, (S)-8-(2-chloro-4-(2-(2-methylpiperazin-1-yl)ethoxy)phenyl)-9-((4-chloropyridin-2-yl)methyl)-6-(1-methylcyclopropoxy)-9H-purine]",200,> 10000,–,–
"Cc1cc(Cl)nc(Cn2c(-c3ccc(OCCN4CCNCC4)cc3Cl)nc3c(OC4(C)CC4)ncnc32)c1 [Example T524, 8-(2-chloro-4-(2-(piperazin-1-yl)ethoxy)phenyl)-9-((6-chloro-4-methylpyridin-2-yl)methyl)-6-(1-methylcyclopropoxy)-9H-purine]",501,> 10000,–,–
"Cc1c(Cl)ccnc1Cn1c(-c2ccc(OCCN3CCNCC3)cc2Cl)nc2c(OC3(C)CC3)ncnc21 [Example T525, 9-((4-chloro-3-methylpyridin-2-yl)methyl)-8-(2-chloro-4-(2-(piperazin-1-yl)ethoxy)phenyl)-6-(1-methylcyclopropoxy)-9H-purine]",1260,> 10000,–,–
"Cc1cnc(Cn2c(-c3ccc(OCCN4CCNCC4)cc3Cl)nc3c(OC4(C)CC4)ncnc32)cc1Cl [Example T526, 8-(2-chloro-4-(2-(piperazin-1-yl)ethoxy)phenyl)-9-((4-chloro-5-methylpyridin-2-yl)methyl)-6-(1-methylcyclopropoxy)-9H-purine]",631,> 10000,–,–
"Cc1cc(Cl)cc(Cn2c(-c3ccc(OCCN4CCNCC4)cc3Cl)nc3c(OC4(C)CC4)ncnc32)n1 [Example T527, 8-(2-chloro-4-(2-(piperazin-1-yl)ethoxy)phenyl)-9-((4-chloro-6-methylpyridin-2-yl)methyl)-6-(1-methylcyclopropoxy)-9H-purine]",398,> 6310,–,–
"Cc1ccnc(Cn2c(-c3ccc(CCN4CCNCC4)cc3Cl)nc3c(OC4(C)CC4)ncnc32)c1 [Example T528, 8-(2-chloro-4-(2-(piperazin-1-yl)ethyl)phenyl)-6-(1-methylcyclopropoxy)-9-((4-methylpyridin-2-yl)methyl)-9H-purine]",398,7940,–,–
"Cc1cc(OCCN2CCNCC2)ccc1-c1nc2c(OC3(C)CC3)ncnc2n1Cc1cc(Cl)ccn1 [Example T529, 9-((4-chloropyridin-2-yl)methyl)-8-(2-methyl-4-(2-(piperazin-1-yl)ethoxy)phenyl)-6-(1-methylcyclopropoxy)-9H-purine]",631,> 10000,–,–
"Cc1cncc(Cn2c(-c3ccc(OCCN4CCNCC4)cc3Cl)nc3c(OC4(C)CC4)ncnc32)c1 [Example T530, 8-(2-chloro-4-(2-(piperazin-1-yl)ethoxy)phenyl)-6-(1-methylcyclopropoxy)-9-((5-methylpyridin-3-yl)methyl)-9H-purine]",1000,> 10000,–,–
"Cc1cc(Cn2c(-c3ccc(OCCN4CCNCC4)cc3Cl)nc3c(OC4(C)CC4)ncnc32)ccn1 [Example T531, 8-(2-chloro-4-(2-(piperazin-1-yl)ethoxy)phenyl)-6-(1-methylcyclopropoxy)-9-((2-methylpyridin-4-yl)methyl)-9H-purine]",6310,> 10000,–,–
"COc1ccc(Cn2c(-c3ccc(OCCN4CCNCC4)cc3Cl)nc3c(OC4(C)CC4)ncnc32)nc1 [Example T532, 8-(2-chloro-4-(2-(piperazin-1-yl)ethoxy)phenyl)-9-((5-methoxypyridin-2-yl)methyl)-6-(1-methylcyclopropoxy)-9H-purine]",6310,> 10000,–,–
"Cc1ccnc(Cn2c(-c3ccc(CC(=O)N4C[C@H]5C[C@@H](C4)O5)cc3Cl)nc3c(OC4(C)CC4)ncnc32)c1 [Example T547, rel-1-((1R,5S)-6-oxa-3-azabicyclo[3.1.1]heptan-3-yl)-2-(3-chloro-4-(6-(1-methylcyclopropoxy)-9-((4-methylpyridin-2-yl)methyl)-9H-purin-8-yl)phenyl)ethan-1-one]",501,> 10000,–,–
"CC1(Oc2ncnc3c2nc(-c2ccc(OCCN4CCC[C@H]4C(=O)O)cc2Cl)n3Cc2cccc(Cl)c2)CC1 [Example T551, (2-(3-chloro-4-(9-(3-chlorobenzyl)-6-(1-methylcyclopropoxy)-9H-purin-8-yl)phenoxy)ethyl)-L-proline]",316,> 10000,–,–
"CC1(Oc2ncnc3c2nc(-c2ccc(OCCCN4CC[C@@H](O)C4)cc2Cl)n3Cc2cc(C(F)(F)F)ccn2)CC1 [Example T554, (R)-1-(3-(3-chloro-4-(6-(1-methylcyclopropoxy)-9-((4-(trifluoromethyl)pyridin-2-yl)methyl)-9H-purin-8-yl)phenoxy)propyl)pyrrolidin-3-ol]",316,> 10000,–,–
"Cc1ccnc(Cn2c(-c3ccc(CC(=O)N4CC5CC(C4)N5)cc3Cl)nc3c(OC4(C)CC4)ncnc32)c1 [Example T555, 1-(3,6-diazabicyclo[3.1.1]heptan-3-yl)-2-(3-chloro-4-(6-(1-methylcyclopropoxy)-9-((4-methylpyridin-2-yl)methyl)-9H-purin-8-yl)phenyl)ethan-1-one]",> 7940,> 10000,–,–
"Cc1ccnc(Cn2c(-c3ccc(CC(=O)N4C[C@@H]5C[C@H]4CN5)cc3Cl)nc3c(OC4(C)CC4)ncnc32)c1 [Example T559, 1-((1S,4S)-2,5-diazabicyclo[2.2.1]heptan-2-yl)-2-(3-chloro-4-(6-(1-methylcyclopropoxy)-9-((4-methylpyridin-2-yl)methyl)-9H-purin-8-yl)phenyl)ethan-1-one]",> 6310,> 10000,–,–
"CC1(Oc2ncnc3c2nc(-c2ccc(OCCCCCCC(=O)O)cc2Cl)n3Cc2cccc(Cl)c2)CC1 [Example T561, 7-(3-chloro-4-(9-(3-chlorobenzyl)-6-(1-methylcyclopropoxy)-9H-purin-8-yl)phenoxy)heptanoic acid]",39.8,> 10000,–,–
"CC1(Oc2ncnc3c2nc(-c2ccc(OCCCC(C)(C)C(=O)O)cc2Cl)n3Cc2cccc(Cl)c2)CC1 [Example T563, 5-(3-chloro-4-(9-(3-chlorobenzyl)-6-(1-methylcyclopropoxy)-9H-purin-8-yl)phenoxy)-2,2-dimethylpentanoic acid]",200,10000,–,–
"CC1(Oc2ncnc3c2nc(-c2ccc(OCCCN4CC[C@@H](O)C4)cc2Cl)n3Cc2cc(C(F)F)ccn2)CC1 [Example T568, (R)-1-(3-(3-chloro-4-(9-((4-(difluoromethyl)pyridin-2-yl)methyl)-6-(1-methylcyclopropoxy)-9H-purin-8-yl)phenoxy)propyl)pyrrolidin-3-ol]",794,> 10000,–,–
"Cc1ccnc(Cn2c(-c3ccc(CC(=O)N4CCC(O)CC4)cc3Cl)nc3c(OC4(C)CC4)ncnc32)c1 [Example T574, 2-(3-chloro-4-(6-(1-methylcyclopropoxy)-9-((4-methylpyridin-2-yl)methyl)-9H-purin-8-yl)phenyl)-1-(4-hydroxypiperidin-1-yl)ethan-1-one]",–,–,1000,> 10000
"Cc1ccnc(Cn2c(-c3ccc(OCCN4CC5(CCN5)C4)cc3Cl)nc3c(OC4(C)CC4)ncnc32)c1 [Example T587, 8-(4-(2-(1,6-diazaspiro[3.3]heptan-6-yl)ethoxy)-2-chlorophenyl)-6-(1-methylcyclopropoxy)-9-((4-methylpyridin-2-yl)methyl)-9H-purine]",–,–,1000,> 10000
"Cc1ccnc(Cn2c(-c3ccc(C(=O)N4CC[C@H](N(C)C)C4)cc3Cl)nc3c(OC4(C)CC4)ncnc32)c1 [Example T588, (S)-(3-chloro-4-(6-(1-methylcyclopropoxy)-9-((4-methylpyridin-2-yl)methyl)-9H-purin-8-yl)phenyl)(3-(dimethylamino)pyrrolidin-1-yl)methanone]",–,–,1260,> 10000
"Cc1ccnc(Cn2c(-c3ccc(CC(=O)N4CCCNCC4)cc3Cl)nc3c(OC4(C)CC4)ncnc32)c1 [Example T589, 2-(3-chloro-4-(6-(1-methylcyclopropoxy)-9-((4-methylpyridin-2-yl)methyl)-9H-purin-8-yl)phenyl)-1-(1,4-diazepan-1-yl)ethan-1-one]",–,–,1580,> 10000
"Cc1ccnc(Cn2c(-c3ccc(OCCCN4CCCC4)cc3Cl)nc3c(OC4(C)CC4)ncnc32)c1 [Example T590, 8-(2-chloro-4-(3-(pyrrolidin-1-yl)propoxy)phenyl)-6-(1-methylcyclopropoxy)-9-((4-methylpyridin-2-yl)methyl)-9H-purine]",–,–,251,> 10000
"Cc1ccnc(Cn2c(-c3ccc(CCN4CCC(O)CC4)cc3Cl)nc3c(OC4(C)CC4)ncnc32)c1 [Example T591, 1-(3-chloro-4-(6-(1-methylcyclopropoxy)-9-((4-methylpyridin-2-yl)methyl)-9H-purin-8-yl)phenethyl)piperidin-4-ol]",–,–,316,> 10000

# Reference: US20250195530A1, “POLQ INHIBITORS” (ASTRAZENECA AB, priority 2022, published 2025)
